Legend:
[1] = system: MOLM-13 (DSMZ no. ACC 554) cell line; test: MOLM-13 cell growth inhibition (CellTiter-Glo), Compound A alone or combined with azacitidine; assay type: cell-based
Experimental: By examining growth inhibition of an MOLM-13 (DSMZ no. ACC 554) cell line which was treated with, in combination, an FLT3 inhibitor, 5-chloro-N-(3-cyclopropyl-5-(((3R,5S)-3,5-dimethylpiperazin-1-yl)methyl)phenyl)-4-(6-methyl-1H-indol-3-yl)pyrimidin-2-amine (hereinafter, Compound A) and a hypomethylating agent (HMA), 4-amino-1-β-D-ribofuranosyl-1,3,5-triazin-2(1H)-one (hereinafter, azacitidine), an effect of combined treatment of the two drugs was tested. The MOLM-13 cell line cultured in an RPMI 1640 culture medium (RPMI=Rosewell Parker Memory Institute) supplemented with 20% FBS was inoculated at a density of 2×10^4 cells per well in a 96-well plate, and Compound A was subjected to ½ serial dilution at predetermined concentrations (e.g., 10 nM to 0.078 nM) using the same culture medium. […] To measure cell viability, a CellTiter-Glo® (CTG) assay was performed, and for result analysis, 50% cell growth inhibition (GI50) was calculated using a GraphPad Prism software.

MOLM-13-Luc2 cell line = test: Mouse model xenografted with MOLM-13-Luc2 cell line, survival; assay type: in vivo; conditions: NOG mouse, MOLM-13-Luc2 i.v.; Compound A 10 mg/kg/day oral once a day; azacitidine 3 mg/kg/day i.p. twice a week
Experimental: A comparison of Compound A and azacitidine or an efficacy test of combination thereof was conducted in a mouse model xenografted with a MOLM-13-Luc2 cell line which is a MOLM-13 cell line genetically modified to express luciferase.
The MOLM-13-Luc2 cell line was injected to a tail vein of NOG mouse at 5×10^6 cells/0.1 mL/mouse, and allowed to grow.
Bioluminescence images of MOLM-13-Luc2 cells were measured using a Lumina III IVIS imaging system (PerkinElmer) and quantified using a Living image software (PerkinElmer). When measured, D-luciferin (D-luciferin) was intraperitoneally injected to mice, and imaging was were performed under anesthesia using isoflurane. Images were measured for a first group separation during the experiment, and then measured on a specific day according to the purpose of the test.
A control group orally received a DMSO/PEG400/DW (ratio=0.5/2/7.5, v/v) mixed solution once a day, and a Compound A group was orally administered once a day at a dose of 10 mg/kg/day. An azacitidine group which is a hypomethylating agent (HMA) group was intraperitoneally administered at a dose of 3 mg/kg/day twice a week (on day 1 and day 4 of the week). A combination group was orally administered with Compound A at a dose of 10 mg/kg/day once a day, and azacitidine was intraperitoneally administered at a dose of 3 mg/kg/day twice a week (on day 1 and day 4 every week). Each group received individual drugs until all subjects in each group died.
The Y-axis represents a percentage (%) of surviving mice (survival rate) in each experimental group, and the X-axis represents the number of days of administration.

[2] = system: Ba/F3 cells expressed in an FLT3 ITD/F691L xenografted mouse model; test: In vivo study, Ba/F3 FLT3 ITD/F691L xenografted mouse model
[3] = system: Ba/F3 cells expressed in an FLT3 ITD/D835Y xenografted mouse model; test: In vivo study, Ba/F3 FLT3 ITD/D835Y xenografted mouse model

| SMILES | GI40 (concentration inhibiting MOLM-13 cell growth by about 40%) ([1]; MOLM-13 cells) [nM] | median survival period (MOLM-13-Luc2 cell line) [days] | overall survival period (MOLM-13-Luc2 cell line) [days] | GI50 ([1]; Homo sapiens, 72 h, MOLM-13, incubation 3 days, CTG assay, combination with azacitidine at 800 nM, GI50 as Compound A concentration) [nM] | therapeutic effect / overcoming resistance caused by FLT3 mutations [2] | therapeutic effect / overcoming resistance caused by FLT3 mutations [3] |
| --- | --- | --- | --- | --- | --- | --- |
| Nc1ncn([C@@H]2O[C@H](CO)[C@@H](O)[C@H]2O)c(=O)n1 [Azacitidine, 4-amino-1-β-D-ribofuranosyl-1,3,5-triazin-2(1H)-one, reference compound] | 800 | 16 | 18 |  |  |  |
| Cc1ccc2c(-c3nc(Nc4cc(CN5C[C@@H](C)N[C@@H](C)C5)cc(C5CC5)c4)ncc3Cl)c[nH]c2c1 [Compound A, 5-chloro-N-(3-cyclopropyl-5-(((3R,5S)-3,5-dimethylpiperazin-1-yl)methyl)phenyl)-4-(6-methyl-1H-indol-3-yl)pyrimidin-2-amine] |  | 17 | 20 | 2.5 | shows therapeutic effects | shows therapeutic effects |

From patent US12433867B2, “Pharmaceutical composition comprising FLT3 inhibitor and hypomethylating agent for treating acute myeloid leukemia” (HANMI PHARM. CO., LTD, priority 2019, dated 2025)
